Where “and” joins values, the source holds several entries; their conditions need not be identical. Equal values may be shown once.
Tests used:
[1] = test system: sheep plasma; test: Sheep's Plasma Clotting Assay (USP coagulation test); format: biochemical
Protocol: In order to understand what the working concentration range could be for the anesthetics tested, a Sheep's Plasma Clotting Assay was performed. This test is based on the United States Pharmacopeia (USP) standard test for coagulation and is often used to understand heparin potency. […] Sheep plasma was thawed in a water bath set to 37° C. To facilitate thawing, the plasma in the bottle was inverted every 15 minutes. The plasma was thawed after about 45-60 minutes. The thawed sheep plasma was filtered through glass wool or filtered into a clean glass beaker or flask, to remove particulate matter and to activate it. About 70-80 mL of filtered sheep plasma was collected. Next, a set of test tubes were prepared (VWR Disposable 13×100-mm) in a 6×12 rack. Ten test tubes were needed for each test solution including ten test tubes for the heparin standard. […] For each test solution, every (10) test tube received different volumes of 0.9% NaCl. […] Next, the local anesthetics were added, namely, tetracaine at 30 mg/mL, dibucaine at 30 mg/mL, and bupivacaine at 38 mg/mL. Each of the ten test tubes received different volumes of test solutions, starting with 280 μL and increasing in volume by 20 μL until reaching a volume of 460 μL at the tenth tube. The total volume of saline and test solutions in each of the tubes was 800 μL. A standard solution, namely, USP heparin sodium standard, was also prepared in the same way, with the starting concentration of heparin being 5.6 U/mL. Next, 1 mL of sheep plasma for heparin assay (Bio-Supplies, Inc, P-SPR-1500) was pipetted into each tube, and the rack was gently shaken to ensure mixing. Two hundred μL of a 1% CaCl2 solution was placed into each tube. The total volume for each tube is 2 mL. Each tube was capped with a VWR Plug-type cap, and contents of each tube were inverted six times to ensure that the entire inner wall of each tube was wet. Tubes were incubated for 1 hour at room temperature. After the 1 hour time period, the extent of clotting in each tube was determined by gently shaking each individual test tube (tapping the end gently is acceptable) and then tilting the tube to observe a clot both vertically and horizontally. The degree to which each tube developed a clot was recorded using the following criteria (per the USP Standard) for the visual inspection of the tubes: • 0% Clotting=No apparent clot formed. • 25% Clotting=Small observable clot with mostly liquid. Clot is very mobile. • 50% Clotting=Plasma is completely clotted but mobile. • 75% Clotting=Clot is not mobile but liquid is still present. • 100% Clotting=Clot is not mobile and no liquid is present.
Because of the testing protocol, starting concentrations of anesthetics were diluted from the original formulation. Calculations can be made to compare the efficacy of these anesthetics to the standard anticoagulant heparin by calculating the point at which both standard and test samples yield 50% clotting. Using this calculation, the anesthetic concentration can be referenced back to a measure of U/mL of heparin equivalence.

[2] = test system: C. albicans; test: Minimum Biofilm Inhibitory Concentration (MBIC) test; format: cell-based, Candida albicans; details: for MBIC: adhered cells, 24 hours incubation; for MBIC Assuming 2 mL lock volume: amount in 2 mL lock volume
Protocol: (§1) To further evaluate the efficacy of local anesthetics in antimicrobial lock solutions of the present invention, the minimum concentration at which these drugs can inhibit biofilm growth was tested. The local anesthetics identified in Table 4 were tested against three different species of bacteria identified in Table 3 to assess the antimicrobial efficacy against adhered microbes. It is known that adhered microbes, or biofilms, can be more resistant to antimicrobials than planktonic cells.
(§2) Experiments were conducted against adhered microbes as follows: first, a test tube containing 10 mL of sterile TSB was inocubated with BD BBL™ Qualiswab™, with the strain of interest. The tube was placed in an incubator at 37° C. overnight. The next day, a flask containing 25 mL of sterile TSB (or Sabouraud Dextrose Broth (SDB) for fungal species) was inoculated with 1 mL of bacterial suspension. The flask was placed in an incubator at 37° C. and shaken at 150 RPM. The next day a new flask containing 25 mL of TSB (or SDB) media was inoculated with 1 mL from the previous culture. The bacterial or fungal species were allowed to grow to log phase.
(§3) After the microbes entered the log phase, their concentration was checked to ensure that they had reached a minimum of 1×10^8 CFU/mL per a 0.5 MacFarland standard. Microbes were diluted to a concentration of 1×10^5 CFU/mL using a nephelometer and 200 μL of the microbial suspensions were plated on each of the wells of a 96 well plate. The plate was incubated in a standard incubator at 37° C. for 2 hours to allow for microbial cell adhesion. Next, dilutions of the desired concentrations of antimicrobials were prepared. In a separate, blank plate, 1:2 serial dilutions were prepared with the highest concentration of the antimicrobial to the left of the plate, decreasing in concentration towards the right of the plate. For example, 170 μL of the highest concentration of an antimicrobial was dispensed in column 1 (left of plate). Each of the rest of the columns received 170 μL of saline. Column 2 received 170 μL of antimicrobial, making for a 1:2 dilution (or 50% of original concentration). Contents of Column 2 were then transferred to 3, then from 3 to 4, and so forth. Each well was supplemented with 20% media (TSB for S. epidermidis and P. aeruginosa and SDB for C. albicans), thereby ensuring the viability of the cells over the test time period (24 hours). Positive control wells had 20% media in saline. The bacterial plate was removed from the incubator, and bacterial suspension discarded (adhered cells remain on plate). The antimicrobial formulations identified in Table 4 were then added to the bacterial plate and incubated in a standard incubator at 37° C. for 24 hours. After this time period, solutions in the plate were discarded and plates were rinsed with 200 μL of saline. The cells were then fixed with 200 μL of 95% ethanol for 30 minutes, and allowed to air dry for 10 minutes. Next, the cells were stained for 20 minutes with 250 μL of a filtered solution of 2% crystal violet dye. The plates were then rinsed three times with water, and the 2% crystal violet dye was solubilized with 300 μL of 95% ethanol. The plates were allowed to stand for 10 minutes to complete solubilization and then the plates were read on a spectrophotometer at 570 nm absorbance, wherein high absorbance readings of >0.600 indicated microbial growth. Columns in the plate that had no growth were recorded as the […] (MBIC). FIG. 2 illustrates the MBIC corresponding to the specific local anesthetics.

[3] = test system: Staphylococcus epidermidis biofilm; test: Catheter biofilm eradication (catheter segment test) on silicone tubing; format: cell-based; details: 1 hour, silicone catheter segments
Protocol: (§4) To understand the antimicrobial effects of the local anesthetics used in the lock solution of the present invention in a clinical setting, a biofilm was grown on silicone catheter-like tubing and treated with various concentrations of local anesthetics. First, a sterile silicone catheter-like tube containing 10 mL TSB media was inoculated with a BD BBL™ Qualiswab™, and placed in an incubator at 37° C. overnight. The next day, a sterile flask containing 25 mL TSB (for bacterial species) or 25 mL SDB (for fungal species) was inoculated with the cultured cells. The morning of the experiment, a new flask containing 25 mL of media was inoculated with the new overnight suspension. These steps were taken to ensure that cells were in the log phase, which for S. epidermidis was ˜3-4 hours, and for C. albicans was around ˜18 hrs. […] Microbial concentrations were adjusted to 1×10^5 CFU/mL by dilution with appropriate media. Silicone catheter-like tubing was terminally sterilized by autoclaving the tube for 45 minutes at 121° C. The sterilized catheter-like tubing was inoculated with 1×10^5 CFU/mL for 2 hours under continuous flow. Continuous flow was created by using a peristaltic pump, in which bacterial suspension was flowed through the catheter segments into a waste reservoir. After the 2 hour time period, the same set up was used to pump TSB media through the tubing for an additional 24 hours to allow biofilm to form on the walls of the catheter lumen. After 24 hours, sterilized saline was pumped through the lumen for 30 minutes to rinse the catheters. Catheters were then cut into 1 inch segments using sterile techniques. Catheter segments were dropped into sterile tubes containing 4 mL of antimicrobials, and incubated in a 37° C. incubator shaker for 1 hour. Segments were removed from treatment tubes and placed into new tubes filled with 6 mL of sterile saline. Each segment was swabbed with a sterile swab and both the tube and the swab were sonicated (Ultrasonic cleaner VWR Model 250T) for 3 minutes. Tubes and swabs were then vortexed (Fisher Scientific Vortex Mixer #02-215-365) for 30 seconds each. One hundred microliters of suspension was plated onto TSB agar plates (SDB for fungal species). The remaining 5.9 mL of suspension was passed through 0.4 μm filters and filters were placed on TSB plates. This step was taken to ensure that all possible bacteria were being recovered. All TSB plates were then incubated at 37° C. in a static incubator for 24-48 hours, at which time colony forming units were counted.

[4] = test system: Candida albicans biofilm; test: as above; format: cell-based; details: 38 mg/mL, 1 hour, silicone catheter segments
Protocol: as §4

[5] = test system: S. epidermidis; test: Minimum Biofilm Inhibitory Concentration (MBIC) test; format: cell-based, Staphylococcus epidermidis; details: for MBIC: adhered cells, 24 hours incubation; for MBIC Assuming 2 mL lock volume: amount in 2 mL lock volume
Protocol: as §1, §2, §3

[6] = test system: P. aeruginosa; test: as above; format: cell-based, Pseudomonas aeruginosa; details: for MBIC: adhered cells, 24 hours incubation; for MBIC Assuming 2 mL lock volume: amount in 2 mL lock volume
Protocol: as §1, §2, §3

[7] = Internal testing of anticoagulant equivalence to heparin; details: per internal testing
[8] = test system: Staphylococcus epidermidis; test: Planktonic cell tests; format: cell-based; details: heparin solution
Protocol: In the planktonic cell tests, bupivacine was tested against non-adhering coagulase negative S. epidermidis, which is the bacterial species most prominent in the pathogenesis of CR-BSI. The planktonic cell experiments were performed by the following procedures. First, bacterial suspensions were prepared. Particularly, using BD BBL™ Qualiswab™, S. epidermidis was plated on a Tryptic Soy Broth (TSB) Petri Dish and grown overnight at 37° C. Using a sterile loop, a colony of S. epidermidis was picked up from the TSB Petri Dish and placed into a sterile flask containing 25 mL of sterile TSB media. The flask was then placed in a 37° C. shaking incubator and was shaken at 150 RPM overnight. The next day, 15 mL of the prepared bacterial suspension was placed into an autoclaved centrifuge tube and centrifuged at 10,000 RPM for 10 minutes using a Sorval Centrifuge. The bacteria from the bacterial suspension were rinsed in 0.9% saline by discarding the liquid media (after centrifugation step) and by resuspending the microbial pellet in 20 mL of sterile 0.9% saline. The bacteria were centrifuged and rinsed twice more, for a total of three saline rinses. […]
Bulk concentrations of the bupivacaine and/or vancomyacin (as noted in FIG. 1) were prepared in separate beakers and were filter sterilized. […] Samples were also assessed at time 0, in which there was no exposure to antimicrobials. […]

## CCCCOc1cc(C(=O)NCCN(CC)CC)c2ccccc2n1.Cl [Dibucaine, Dibucaine HCl]
[1]; calculated from volumes giving 50% clotting versus heparin standard, per replicate
  Equivalence to Heparin: 6.23 U/mL
[1]; final concentration in tube, 1 hour at room temperature, per replicate
  50% clotting range: 5.1 to 5.4 mg/mL
[2]
  MBIC: 0.59 mg/mL
  MBIC Assuming 2 mL lock volume: 1.18 mg
[3]; 38 mg/mL
  Log reduction of established biofilm: ~0.5 Log
[4]
  eradication of established biofilm: completely eradicated
[5]
  MBIC: 0.59 mg/mL
  MBIC Assuming 2 mL lock volume: 1.18 mg
[6]; HCl
  MBIC: 4.794 mg/mL and 4.75 mg/mL
[6]
  MBIC Assuming 2 mL lock volume: 9.5 mg

## Cc1cccc(C)c1NC(=O)C1CCCCN1C.Cl (stereo not drawn) [Mepivacaine, Mepivacaine HCl]
[2]
  MBIC: No inhibition
  MBIC Assuming 2 mL lock volume: No inhibition
[3]; 28 mg/mL
  Log reduction of established biofilm: 1.6 Log
[5]
  MBIC: 28.2 mg/mL
  MBIC Assuming 2 mL lock volume: 56.4 mg
[6]
  MBIC: 28.2 mg/mL
  MBIC Assuming 2 mL lock volume: 56.4 mg

## CCCNC(C)C(=O)Nc1ccccc1C.Cl (stereo not drawn) [Prilocaine, Prilocaine HCl]
[3]
  antimicrobial effect on established biofilm: minimal antimicrobial effect

## O=C([O-])CC(O)(CC(=O)[O-])C(=O)[O-].[Na+].[Na+].[Na+] [sodium citrate]
[7]
  anticoagulant equivalence to heparin: about 20 units/mL of heparin

## heparin
[1]; Rep 1
  volume at 50% coagulation: 370 µL
[8]
  antimicrobial effect against planktonic Staphylococcus epidermidis: virtually no antimicrobial effect
